Assay results reported in PMC7714071, “Interaction of amyloid beta with humanin and acetylcholinesterase is modulated by ATP” (FEBS Open Bio, 2020).

Test system: Aβ from H1299 cell-conditioned media
Assay: ELISA, HN (endogenous and exogenously added) and AChE bound to Aβ from H1299 media on 82E1 antibody
Format: binding, human
Conditions: H1299 media, Fig. 6B
Procedure: Human NSCLC cell lines, A549 (ATCC CCL‐185) and H1299 (ATCC CRL‐5803), were purchased from the American Type Culture Collection (ATCC, Manassas, VA, USA). Cells were seeded as we reported earlier in 5 mL HyClone Dulbecco's modified Eagle's medium/nutrient mixture F‐12 (DMEM/F12) (GE Healthcare Life Sciences, Pittsburgh, PA, USA), supplemented with 10% Fetalgro bovine growth serum (FBS; RMBIO, Missoula, MT, USA), 50 U·mL^−1 penicillin, and […] streptomycin (Invitrogen, Life Technologies, Carlsbad, CA, USA) in 25‐cm^2 tissue culture flasks, and allowed to grow overnight in an incubator at 37 °C, 95% humidity, and 5% CO2. The cells were counted after trypan blue staining, with a hemocytometer.
ELISAs were carried out as we previously reported. Nunc MaxiSorp 96‐well flat bottom plate (Thermo Fisher) wells were coated with samples as indicated. The plates were incubated overnight at 4 °C on a shaker to allow binding of the samples to the plate wells. After the incubation, the wells were washed 4× with TBST, filled with 400 µL blocking buffer (110 mM KCl, 5 mM NaHCO3, 5 mM MgCl2, 1 mM EGTA, 0.1 mM CaCl2, 20 mM HEPES, 1% BSA, pH 7.4), and incubated with shaking overnight at 4 °C. The wells were then washed 4× with TBST, and 100 µL of sample at the desired concentration was added to each well and incubated with shaking overnight at 4 °C. TBST was then used to wash the wells 4× before proceeding in one of two ways: (a) biotinylated samples were analyzed by adding 100 µL streptavidin–HRP conjugate in TBST (1 : 2500 dilution) to the samples followed by incubation for 3 h at RT on a shaker, or (b) samples without biotin were analyzed by adding 100 µL TBST containing the primary antibody as per the manufacturer's recommendation, incubating for 3 h at RT on a shaker, followed by washing the wells 4× with TBST. […] The reaction was stopped with 100 µL 2 M H2SO4 after incubating at RT for 0.5–15 min, resulting in a yellow color change, measured by absorbance at 450 nm. […] Before analysis, the OD from the data was corrected for nonspecific binding by subtracting the mean background absorbance for the negative controls. […] Statistical analysis was determined by the […] […] Data were expressed as the mean ± SD. […]
Anti‐Aβ‐specific antibodies (82E1) were added (1 : 1000 dilution) to ELISA plate wells (Fig. 6). The wells were blocked, and then, 300 µL of the conditioned media (0.5 µg·µL^−1) of A549 or H1299 cells, 72 h postserum starvation, was added in the absence or presence of increasing HN concentrations, and the HN and AChE bound were detected using the corresponding specific primary antibodies. Fold change relative to controls that included all components but without the primary antibodies was calculated and fit with a nonlinear regression curve using the […] […]

Row | Compound | HN concentration at which signal begins to level off (exogenous HN) | binding of exogenous HN to Aβ (increasing exogenous HN, 82E1) | effect of ATP on binding of exogenously added HN to Aβ (0.1 mM, 1 mM ATP (more pronounced at 1 mM)) | effect of ATP on binding of endogenous HN to Aβ (increasing ATP (0.1 mM, 1 mM; more pronounced at 1 mM), 82E1)
1 | Humanin [HN] | around 50 nM | increased binding to Aβ |  | 
2 | Nc1ncnc2c1ncn2[C@@H]1O[C@H](COP(=O)(O)OP(=O)(O)OP(=O)(O)O)[C@@H](O)[C@H]1O [ATP, Adenosine triphosphate] |  |  | decreased binding of exogenously added HN | increased binding of endogenous HN
